Reference: patent US11926626B2, “Heterocyclic GLP-1 agonists” (Gasherbrum Bio, Inc., priority 2020, dated 2024)
Like-named read-outs stand apart in the source and are kept apart here.

Target: GLP-1 Receptor (Homo sapiens, UniProt P43220)
Assay: GLP-1R agonist cAMP stimulation assay (HEK293/GLP1R/CRE-Luc cells, HTRF cAMP)
Format: cell-based
[1] = HEK293/CRE-Luc cells stably expressing GLP-1 Receptor, 30 min, 37° C.

Chain of GLP-1 Receptor (P43220 24-463): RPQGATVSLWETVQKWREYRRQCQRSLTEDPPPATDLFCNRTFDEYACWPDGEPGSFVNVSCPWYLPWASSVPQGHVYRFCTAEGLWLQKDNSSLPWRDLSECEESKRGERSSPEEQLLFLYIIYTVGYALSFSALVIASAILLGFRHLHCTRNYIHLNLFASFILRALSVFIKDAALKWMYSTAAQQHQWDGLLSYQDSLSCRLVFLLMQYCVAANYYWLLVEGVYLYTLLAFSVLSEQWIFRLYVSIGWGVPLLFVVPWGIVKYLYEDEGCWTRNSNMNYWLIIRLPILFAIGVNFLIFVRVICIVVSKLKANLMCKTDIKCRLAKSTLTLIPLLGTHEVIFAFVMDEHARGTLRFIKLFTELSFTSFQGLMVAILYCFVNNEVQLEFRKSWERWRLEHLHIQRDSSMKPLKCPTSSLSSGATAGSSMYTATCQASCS

SMILES	GLP1R cAMP Stimulation DR: pEC50 [1]	other results
O=C(O)c1ccc2nc(CN3CCC(C(F)(F)c4cccc(Cc5ccc(Cl)cc5F)n4)CC3)n(C[C@@H]3CCO3)c2n1 [Compound 173a, 2-{[4-({6-[(4-chloro-2-fluorophenyl)methyl]pyridin-2-yl}difluoromethyl)piperidin-1-yl]methyl}-3-{[(2S)-oxetan-2-yl]methyl}-3H-imidazo[4,5-b]pyridine-5-carboxylic acid]	–	GLP1R cAMP Stimulation DR: pEC50 (30 min, 37° C.): 8.4
O=C(O)c1ccc2nc(CN3CCC(Oc4cccc(Cc5ccc(Cl)cc5)c4F)CC3)n(C[C@@H]3CCO3)c2n1 [Compound 157a, 2-[(4-{3-[(4-chlorophenyl)methyl]-2-fluorophenoxy}piperidin-1-yl)methyl]-3-{[(2S)-oxetan-2-yl]methyl}-3H-imidazo[4,5-b]pyridine-5-carboxylic acid]	7.4	–
O=C(O)c1ccc2nc(CN3CCC(Oc4nc(Cc5ccc(Cl)cc5F)ccc4Cl)CC3)n(C[C@@H]3CCO3)c2n1 [Compound 137a, 2-{[4-({3-chloro-6-[(4-chloro-2-fluorophenyl)methyl]pyridin-2-yl}oxy)piperidin-1-yl]methyl}-3-{[(2S)-oxetan-2-yl]methyl}-3H-imidazo[4,5-b]pyridine-5-carboxylic acid]	7.3	–
N#CC1(Cn2c(CN3CCC(Oc4ccnc(Cc5ccc(Cl)cc5F)n4)CC3)nc3ccc(C(=O)O)cc32)CC1 [Compound 162, 2-{[4-({2-[(4-chloro-2-fluorophenyl)methyl]pyrimidin-4-yl}oxy)piperidin-1-yl]methyl}-1-[(1-cyanocyclopropyl)methyl]-1H-1,3-benzodiazole-6-carboxylic acid]	10.1	–
O=C(O)c1ccc2nc(CN3CCC(Oc4ccnc(Cc5ccc(Cl)cc5)n4)CC3)n(C[C@H]3CCOC3)c2n1 [Compound 196a, (R)-2-((4-((2-(4-chlorobenzyl)pyrimidin-4-yl)oxy)piperidin-1-yl)methyl)-3-((tetrahydrofuran-3-yl)methyl)-3H-imidazo[4,5-b]pyridine-5-carboxylic acid]	8.9	–
CC(c1cccc(OC2CCN(Cc3nc4ccc(C(=O)O)nc4n3C[C@@H]3CCO3)CC2)n1)c1ccc(Cl)cc1F (stereo partly drawn) [Compound 128a, 2-{[4-({6-[1-(4-chloro-2-fluorophenyl)ethyl]pyridin-2-yl}oxy)piperidin-1-yl]methyl}-3-{[(2S)-oxetan-2-yl]methyl}-3H-imidazo[4,5-b]pyridine-5-carboxylic acid]	–	GLP1R cAMP Stimulation DR: pEC50: 8.9
O=C(O)c1ccc2nc(CC3CCN(C(=O)c4cccc(Cc5ccc(Cl)cc5F)n4)CC3)n(C[C@@H]3CCO3)c2n1 [Compound 106a, (S)-2-((1-(6-(4-Chloro-2-fluorobenzyl)picolinoyl)piperidin-4-yl)methyl)-3-(oxetan-2-ylmethyl)-3H-imidazo[4,5-b]pyridine-5-carboxylic acid]	–	GLP1R cAMP Stimulation DR: pEC50 (30 min, 37° C.): 6.33
